# Source: BindingDB's records for doi:10.1021/jm000506s (The R. W. Johnson Pharmaceutical Research Institute, 2001)
# Test: In vitro antagonist activity against Thrombin induced gel-filtered platelet (GFP) aggregation at 0.15 nM.
row,Compound,IC50 [µM]
1,COc1ccc(C[C@H](NC(=O)Nc2ccc3c(CN4CCCC4)cn(Cc4ccc(F)cc4)c3c2)C(=O)N[C@@H](CCCNC(=N)N)C(=O)NCc2ccccc2)cc1 [2-[2-{3-[1-(4-Fluoro-benzyl)-3-pyrrolidin-1-ylmethyl-1H-indol-6-yl]-ureido}-3-(4-methoxy-phenyl)-propionylamino]-5-guanidino-pentanoic acid benzylamide],2.32
2,COc1ccc(C[C@H](NC(=O)Nc2ccc3c(CNC4CCCC4)cn(Cc4ccc(F)cc4)c3c2)C(=O)N[C@@H](CCCNC(=N)N)C(=O)NCc2ccccc2)cc1 [2-[2-{3-[3-Cyclopentylaminomethyl-1-(4-fluoro-benzyl)-1H-indol-6-yl]-ureido}-3-(4-methoxy-phenyl)-propionylamino]-5-guanidino-pentanoic acid benzylamide],17.8
3,COc1ccc(C[C@H](NC(=O)Nc2ccc3c(CN4CCCC4)cn(Cc4c(Cl)cccc4Cl)c3c2)C(=O)N[C@@H](CCCN=C(N)N)C(=O)NCc2ccccc2)cc1 [RWJ-54003],0.9

# Results, then the compound that gave them:
row,IC50 [µM],Compound
1,1.06,"N=C(N)NCCC[C@H](NC(=O)[C@H](Cc1ccc(F)c(F)c1)NC(=O)Nc1ccc2c(CN3CCCC3)cn(Cc3c(Cl)cccc3Cl)c2c1)C(=O)NCc1ccncc1 [2-[2-{3-[1-(2,6-Dichloro-benzyl)-3-pyrrolidin-1-ylmethyl-1H-indol-6-yl]-ureido}-3-(3,4-difluoro-phenyl)-propionylamino]-5-guanidino-pentanoic acid (pyridin-4-ylmethyl)-amide]"
2,0.37,"NCC[C@H](NC(=O)[C@H](Cc1ccc(F)c(F)c1)NC(=O)Nc1ccc2c(CN3CCCC3)nn(Cc3c(Cl)cccc3Cl)c2c1)C(=O)NCc1ccccc1 [4-Amino-N-benzyl-2-[2-{3-[1-(2,6-dichloro-benzyl)-3-pyrrolidin-1-ylmethyl-1H-indazol-6-yl]-ureido}-3-(3,4-difluoro-phenyl)-propionylamino]-butyramide]"
3,18.2,COc1ccc(C[C@H](NC(=O)Nc2ccc3c(CN4CCCC4)cn(Cc4ccc(OC(F)(F)F)cc4)c3c2)C(=O)N[C@@H](CCCNC(=N)N)C(=O)NCc2ccccc2)cc1 [5-Guanidino-2-(3-(4-methoxy-phenyl)-2-{3-[3-pyrrolidin-1-ylmethyl-1-(4-trifluoromethoxy-benzyl)-1H-indol-6-yl]-ureido}-propionylamino)-pentanoic acid benzylamide]
4,0.57,"N=C(N)NCCC[C@H](NC(=O)[C@H](Cc1ccc(F)c(F)c1)NC(=O)Nc1ccc2c(CN3CCCC3)cn(Cc3c(Cl)cccc3Cl)c2c1)C(=O)NCc1ccccc1 [(S)-2-[(S)-2-{3-[1-(2,6-Dichloro-benzyl)-3-pyrrolidin-1-ylmethyl-1H-indol-6-yl]-ureido}-3-(3,4-difluoro-phenyl)-propionylamino]-5-guanidino-pentanoic acid benzylamide]"
